According to patent US12389911B2, “Benzimidazole compound or salt thereof, agricultural and horticultural insecticidal and acaricidal agent containing said compound, and method for using same” (NIHON NOHYAKU CO., LTD., priority 2019, dated 2025):

What follows are compounds tested on Two-spotted spider mite (Tetranychus urticae) (assay: Acaricidal action on two-spotted spider mite (kidney bean leaf disk spray)). Conditions: 500 ppm, adult females, 25° C., two days after treatment.
Format: in vivo
Description: Acaricidal Action on Two-Spotted Spider Mite (Tetranychus urticae)
Leaf disk having a diameter of 2 cm was prepared by leaves of kidney bean, and the leaf disk was placed on the wetted filter paper. Adult hens of two-spotted spider mite were inoculated on the wetted filter paper, and then 50 ml of an agrochemical dispersion, prepared by diluting a formulation containing the benzimidazole compound represented by the general formula (1) of the present invention or salt thereof as an active ingredient to adjust each of the concentrations to 500 ppm, was sprayed on turntable uniformly. After the spraying, it was allowed to stand in a thermostatic chamber at 25° C. Two days after the treatment of an agrochemical dispersion, the dead mites were counted, the corrected mortality rate was calculated according to the formula shown below, and the acaricidal efficacy was evaluated according to the criteria of Test Example 2. This test was conducted in duplicate using 10 adult hens of two-spotted spider per plot. Corrected mortality(%)=(Number of dead mites in a non-treatment plot−Number of dead mites in a treatment plot)/(Number of dead mites in a non-treatment plot)×100 [Expression 4]

Compound | acaricidal efficacy (corrected mortality rate), activity level
CCCCCc1nn(-c2nc3ccccc3n2S(=O)(=O)CC)cc1C(=O)OC(C)(C)C [Compound 2-85] | D or higher
CCS(=O)(=O)n1c(-n2cc(C(=O)OC(C)(C)C)c(C=C(C)C)n2)nc2ccccc21 [Compound 2-86] | D or higher
CCS(=O)(=O)n1c(-n2cc(C(=O)OC(C)(C)C)c(CC(C)C)n2)nc2ccccc21 [Compound 2-87] | D or higher
CCS(=O)(=O)n1c(-n2cc(C(=O)OC(C)(C)C)c(C#Cc3ccccc3)n2)nc2ccccc21 [Compound 2-88] | D or higher
CCS(=O)(=O)n1c(-n2cc(C(=O)OC(C)(C)C)c(CCc3ccccc3)n2)nc2ccccc21 [Compound 2-89] | D or higher
CCS(=O)(=O)n1c(-n2cc(C(=O)OC(C)(C)C)c(C(F)(F)C(F)(F)F)n2)nc2ccccc21 [Compound 2-90] | D or higher
CCS(=O)(=O)n1c(-n2nc(COC(C)(C)C)c(C(=O)OC(C)(C)C)c2C)nc2ccccc21 [Compound 2-91] | D or higher
C#CCOc1nn(-c2nc3ccccc3n2S(=O)(=O)CC)cc1C(=O)OC(C)(C)C [Compound 2-92] | D or higher
CCS(=O)(=O)n1c(-n2cc(C(=O)OC(C(F)(F)F)C(F)(F)F)cn2)nc2ccccc21 [Compound 2-93] | D or higher
CCS(=O)(=O)n1c(-n2cc(C(=O)NCC(F)(F)F)c(C(C)(C)C)n2)nc2ccccc21 [Compound 2-94] | D or higher
CCS(=O)(=O)n1c(-n2cc(C(=O)NCC(F)(F)F)c(C(=O)NCC(F)(F)F)n2)nc2ccccc21 [Compound 2-95] | D or higher
CCS(=O)(=O)n1c(-n2cc(C(=O)NC3CC3)c(C(C)(C)C)n2)nc2ccccc21 [Compound 2-96] | D or higher
CCS(=O)(=O)n1c(-n2cc(C(=O)NC(C)(C)C)c(C(C)(C)C)n2)nc2ccccc21 [Compound 2-97] | D or higher
CCS(=O)(=O)n1c(-n2cc(C(=O)N(C)C(C)(C)C)c(C(=O)N(C)C(C)(C)C)n2)nc2ccccc21 [Compound 2-98] | D or higher
CCS(=O)(=O)n1c(-n2cc(C#N)c(C(C)(C)C)n2)nc2ccccc21 [Compound 2-99] | D or higher
CCS(=O)(=O)n1c(-n2cc(C#Cc3ccccc3)c(OCC(F)(F)F)n2)nc2ccccc21 [Compound 2-100] | D or higher
CCS(=O)(=O)n1c(-n2cc(CCc3ccccc3)c(OCC(F)(F)F)n2)nc2ccccc21 [Compound 2-101] | D or higher
CCS(=O)(=O)n1c(-n2cc(CCC(=O)OC(C)(C)C)c(OCC(F)(F)F)n2)nc2ccccc21 [Compound 2-102] | D or higher
CCS(=O)(=O)n1c(-n2ccc(OCCCC(=O)OC(C)(C)C)n2)nc2ccccc21 [Compound 2-103] | D or higher
CCS(=O)(=O)n1c(-n2cc(I)c(C(=O)OC(C)(C)C)n2)nc2ccccc21 [Compound 2-104] | D or higher
CCS(=O)(=O)n1c(-n2cc(C3CC3)c(C(=O)OC(C)(C)C)n2)nc2ccccc21 [Compound 2-105] | D or higher
CCS(=O)(=O)n1c(-n2cc(C#Cc3ccccc3)c(C(=O)OC(C)(C)C)n2)nc2ccccc21 [Compound 2-106] | D or higher
CCS(=O)(=O)n1c(-n2cc(CCc3ccccc3)c(C(=O)OC(C)(C)C)n2)nc2ccccc21 [Compound 2-107] | D or higher
CCS(=O)(=O)n1c(-n2cc(C#N)c(C(=O)OC(C)(C)C)n2)nc2ccccc21 [Compound 2-108] | D or higher
CCS(=O)(=O)n1c(-n2cc(CCc3ccccc3)c(C#N)n2)nc2ccccc21 [Compound 2-109] | D or higher
C#Cc1cn(-c2nc3ccccc3n2S(=O)(=O)CC)nc1C(F)(F)F [Compound 2-110] | D or higher
CCS(=O)(=O)n1c(-n2cc(C#N)c(C(F)(F)C(F)(F)F)n2)nc2ccccc21 [Compound 2-111] | D or higher
CCS(=O)(=O)n1c(-n2cc(/C=C/C(=O)OC(C(F)(F)F)C(F)(F)F)c(C(F)(F)F)n2)nc2ccccc21 [Compound 2-112] | D or higher

Compound | acaricidal efficacy (corrected mortality rate), activity level
CCS(=O)(=O)n1c(-n2cc(/C=C/C(=O)OCC(C)(C)C)c(C(F)(F)F)n2)nc2ccccc21 [Compound 2-113] | D or higher
CCS(=O)(=O)n1c(-n2cc(/C=C/C(=O)OCc3ccc(C(C)(C)C)cc3)c(C(F)(F)F)n2)nc2ccccc21 [Compound 2-114] | D or higher
CCS(=O)(=O)n1c(-n2cc(/C=C/C(=O)OCc3ccc(C(F)(F)F)cc3)c(C(F)(F)F)n2)nc2ccccc21 [Compound 2-115] | D or higher
CCS(=O)(=O)n1c(-n2cc(/C=C/C(=O)OCC34CC5CC(CC(C5)C3)C4)c(C(F)(F)F)n2)nc2ccccc21 [Compound 2-116] | D or higher
CCS(=O)(=O)n1c(-n2cc(/C=C/C(=O)NCC(F)(F)F)c(C(F)(F)F)n2)nc2ccccc21 [Compound 2-117] | D or higher
CCS(=O)(=O)n1c(-n2cc(C#Cc3ccccn3)c(C(F)(F)F)n2)nc2ccccc21 [Compound 2-118] | D or higher
CCS(=O)(=O)n1c(-n2cc(C(C)=O)c(C)n2)nc2ccccc21 [Compound 2-119] | D or higher
CCS(=O)(=O)n1c(-n2cc(S(=O)(=O)N(C)C)c(C(F)(F)F)n2)nc2ccccc21 [Compound 2-120] | D or higher
CCS(=O)(=O)n1c(-n2cc(SCc3ccc(C(C)(C)C)cc3)c(C(F)(F)F)n2)nc2ccccc21 [Compound 2-121] | D or higher
CCCC#Cc1cn(-c2nc3ccccc3n2S(=O)(=O)CC)nc1C(F)(F)F [Compound 2-122] | D or higher
CCS(=O)(=O)n1c(-n2cc(C#CC3CC3)c(C(F)(F)F)n2)nc2ccccc21 [Compound 2-123] | D or higher
CCS(=O)(=O)n1c(-n2cc(C#CC(C)(C)C)c(C(F)(F)F)n2)nc2ccccc21 [Compound 2-124] | D or higher
CCCCCc1cn(-c2nc3ccccc3n2S(=O)(=O)CC)nc1C(F)(F)F [Compound 2-125] | D or higher
CCS(=O)(=O)n1c(-n2cc(CCC3CC3)c(C(F)(F)F)n2)nc2ccccc21 [Compound 2-126] | D or higher
CCS(=O)(=O)n1c(-n2cc(CCC(C)(C)C)c(C(F)(F)F)n2)nc2ccccc21 [Compound 2-127] | D or higher
CCS(=O)(=O)n1c(-n2cc(C#CCOC)c(C(F)(F)F)n2)nc2ccccc21 [Compound 2-128] | D or higher
CCS(=O)(=O)n1c(-n2cc(C#CC(C)(C)OC)c(C(F)(F)F)n2)nc2ccccc21 [Compound 2-129] | D or higher
CCS(=O)(=O)n1c(-n2cc(/C=C/C(=O)OC(C)(C)C)c(C(=O)OC(C)(C)C)n2)nc2ccccc21 [Compound 2-130] | D or higher
CCS(=O)(=O)n1c(-n2cc(C(=O)CC(C)(C)C)c(CC(C)(C)C)n2)nc2ccccc21 [Compound 2-131] | D or higher
CCS(=O)(=O)n1c(-n2cc(C#CCOC(=O)C(C)(C)C)c(C(F)(F)F)n2)nc2ccccc21 [Compound 2-132] | D or higher
CCS(=O)(=O)n1c(-n2cc(C#CC(C)(C)C)c(C(=O)OC(C)(C)C)n2)nc2ccccc21 [Compound 2-133] | D or higher
CCS(=O)(=O)n1c(-n2cc(CCCOC(=O)C(C)(C)C)c(C(F)(F)F)n2)nc2ccccc21 [Compound 2-134] | D or higher
CCS(=O)(=O)n1c(-n2cc(CCC(=O)OC(C)(C)C)c(C(=O)OC(C)(C)C)n2)nc2ccccc21 [Compound 2-135] | D or higher
CCS(=O)(=O)n1c(-n2cc(Br)c(OC(F)(F)C(=O)N(C)C)n2)nc2ccccc21 [Compound 2-136] | D or higher
CCS(=O)(=O)n1c(-n2cc(CCC(C)(C)C)c(C(=O)OC(C)(C)C)n2)nc2ccccc21 [Compound 2-137] | D or higher
CCS(=O)(=O)n1c(-n2cc(C#CCOCC(F)(F)F)c(C(F)(F)F)n2)nc2ccccc21 [Compound 2-138] | D or higher
CCS(=O)(=O)n1c(-n2cc(C(=O)OC(C)(C)C)c(OC(F)F)n2)nc2ccccc21 [Compound 2-139] | D or higher
